Results: article PMC11360180, “Enhancement of Antimicrobial Function by L/D-Lysine Substitution on a Novel Broad-Spectrum Antimicrobial Peptide, Phylloseptin-TO2: A Structure-Related Activity Research Study” (Pharmaceutics, 2024)
“And” between values parts separate entries of the source, which are not always exact repeats. Identical values can stand only once. Like-named read-outs stand apart in the source and are kept apart here. Where a SMILES comes first, the peptide text is derived from it. Where no end group is shown, it is not given here. [ ]: non-standard residue; d: D form.

Experiments:
[1] = system: P. aeruginosa (ATCC 9027); format: cell-based, Pseudomonas aeruginosa
Excerpt: (§1) Seven microorganism strains were used to preliminarily evaluate the antimicrobial activity of PSTO2 and its analogues, including Staphylococcus aureus (S. aureus) (ATCC® 6538), methicillin-resistant Staphylococcus aureus (MRSA) (NCTC® 12493), Enterococcus faecalis (E. faecalis) (NCTC® 12697), E. coli (ATCC® 8739), Klebsiella pneumonia (K. pneumonia) (ATCC® 43816), Pseudomonas aeruginosa (P. aeruginosa) (ATCC® CRM 9027), Acinetobacter baumanni (A. baumanni) (BAA® 747), and Candida albicans (C. albicans) (ATCC® 10231). In this study, the strains were cultured in Mueller–Hinton broth (MHB), nutrient broth (NB), and yeast–peptone–dextrose broth (YPD-B) correspondingly at 37 °C, with shaking at 120 rpm. Each peptide was dissolved from 128 μM to 1 μM and mixed with the bacterium at 5 × 10^5 CFU/mL. In this process, bacteria with culture medium were used as the growth control group; PBS was set up as the vehicle control group; sterile culture medium was used as the blank control group; and Norfloxacin at a concentration of 2 mg/mL and amphotericin B at a concentration of 1 mg/mL were set up as the positive control group for bacteria and fungi, respectively.
(§2) After being incubated for 24 h, a Synergy HT plate reader (Bio-Tek, Shoreline, WA, USA) was used to detect the absorbance of each well in the 96-well plate at λ = 550 nm. The concentration at which no visible turbidity could be recorded was the MIC value. Beginning from the MIC value, 10 µL of solution in each clear well was dropped on the sterile agar plates. The plate was checked the next day for colony formation, and the lowest concentration at which no colony growing was recorded as an MBC value.

[2] = system: K. pneumonia (ATCC 43816); format: cell-based, Klebsiella pneumonia
Excerpt: as §1, §2

S. aureus (ATCC 6538) = format: cell-based, Staphylococcus aureus
Excerpt: as §1, §2

MRSA (NCTC 12493) = format: cell-based, methicillin-resistant Staphylococcus aureus
Excerpt: as §1, §2

E. coli (ATCC 8739) = format: cell-based, Escherichia coli
Excerpt: as §1, §2

horse red blood cells = format: cell-based
Procedure: To assess the haemolytic activity of PSTO2 and its analogues, 2% fresh defibrinated horse red blood cells (TCS Biosciences Ltd., Buckingham, UK) were acquired after being washed and resuspended in sterile PBS. Each peptide was dissolved in PBS to prepare solutions with concentrations ranging from 2 µM to 1024 µM. Subsequently, 100 µL of each peptide solution was mixed with 100 µL of the red blood cell suspension. The red blood cells treated with 1% triton X-100 and sterile PBS in equivalent volumes were set up as the positive and negative control groups, respectively. Then, all the samples were incubated at 37 °C for 2 h. Thereafter, the samples were centrifuged at 900× g for 10 min. Finally, 100 µL of supernatant of each sample was transferred into a 96-well plate, and the absorbance was recorded by a Synergy HT plate reader (Bio-Tek, Shoreline, WA, USA) at a wavelength of 570. The following equation was used to calculate haemolysis activity:Haemolysis activity = (Sample absorbance − Ab)/(Ap − Ab) × 100% where Ab refers to the mean value of absorbance of the negative control (incubated with PBS only), and Ap refers to the mean absorbance value of the positive control (incubated with triton X-100).

C. albicans = format: cell-based, Candida albicans; conditions: 24 h
Excerpt: as §1, §2

A. baumannii (BAA 747) = format: cell-based, Acinetobacter baumanni; conditions: BAA 747, 24 h
Excerpt: as §1, §2

[3] = system: S. aureus (ATCC 6538) biofilm; format: cell-based, Staphylococcus aureus; conditions: ATCC 6538, 24 h
Procedure: (§3) To test the anti-biofilm ability of PSTO2 and its analogues, three types of microorganisms (S. aureus ATCC® 6538, E. coli ATCC® 8739, and MRSA NCTC® 12493) were chosen. Tryptic soy broth (TSB) and Lysogeny broth (LB) were used to culture microorganisms. The peptide was dissolved in an autoclaved PBS solution and diluted into concentrations ranging from 51,200 µM to 100 µM. One µL of peptide solution of each concentration was added into a 96-well plate with 100 µL bacterium at 5 × 10^5 CFU/mL. The plate was incubated at 37 °C for 24 h, with shaking at 200 rpm. After overnight incubation, the planktonic bacteria were washed up. Then, 100 µL of methanol was used to fix the biofilms onto the bottom, and 100 µL of 0.1% crystal violet solution (Sigma-Aldrich, Gillingham, UK) was added to each well to stain the biofilms. After drying, 160 µL of acetic acid (30% in deionised water, Sigma-Aldrich, UK) was added to each well to dissolve the shaded parts. The absorbance was detected with the Synergy HT plate reader at λ = 595 nm.
(§4) For the MBEC assay, 100 µL of the bacterium of 5 × 10^5 CFU/mL was transferred into an empty 96-well plate, and the plate was incubated at 37 °C for 24 h to obtain the biofilms primarily. Then, the peptide solution from 512 µM to 1 µM was transferred into a corresponding well, followed by 24 h incubation at 37 °C, with shaking at 200 rpm. After this, the plate was handled using the identical method to the plate in the MBIC assay, and the absorbance of each well was detected with the Synergy HT plate reader at λ = 595 nm. The minimum concentration at which the peptide can eradicate the existing biofilm was recorded as the MBEC value.

[4] = system: E. coli (ATCC 8739) biofilm; format: cell-based, Escherichia coli; conditions: ATCC 8739, 24 h
Procedure: as §3, §4

[5] = system: MRSA (ATCC 12493) biofilm; format: cell-based, methicillin-resistant Staphylococcus aureus; conditions: ATCC 12493, 24 h
Procedure: as §3, §4

[6] = clear wells plated on agar, no colony

Compound	MBC ([1]; ATCC 9027, 24 h) [µM]	MIC ([1]; ATCC 9027, 24 h) [µM]	MBC ([2]; ATCC 43816, 24 h)	MIC ([2]; ATCC 43816, 24 h) [µM]	MBC (S. aureus (ATCC 6538); ATCC 6538, 24 h) [µM]	MIC (S. aureus (ATCC 6538); ATCC 6538, 24 h) [µM]	MBC (MRSA (NCTC 12493); NCTC 12493, 24 h) [µM]	MIC (MRSA (NCTC 12493); NCTC 12493, 24 h) [µM]	HC10 (horse red blood cells)	MBC (C. albicans) [µM]	MIC (C. albicans) [µM]	MBC (A. baumannii (BAA 747))	MIC (A. baumannii (BAA 747)) [µM]	MBC (E. coli (ATCC 8739); ATCC 8739, 24 h)	MIC (E. coli (ATCC 8739); ATCC 8739, 24 h) [µM]	MBEC [3] [µM]	MBIC [3] [µM]	MBEC [4] [µM]	MBIC [4] [µM]	MBEC [5] [µM]	other results
CC[C@H](C)[C@H](NC(=O)CN)C(=O)NCC(=O)N[C@@H](C)C(=O)N[C@H](C(=O)N[C@@H](CC(C)C)C(=O)N[C@@H](CCCCN)C(=O)N[C@H](C(=O)N[C@@H](CC(C)C)C(=O)N[C@H](C(=O)N[C@H](C(=O)NCC(=O)N[C@@H](CC(C)C)C(=O)N1CCC[C@H]1C(=O)N[C@@H](C)C(=O)N[C@@H](CC(C)C)C(=O)N[C@H](C(=O)N[C@@H](CO)C(=O)N[C@@H](Cc1c[nH]c2ccccc12)C(=O)N[C@H](C(=O)N[C@@H](CCCCN)C(=O)N[C@@H](CCCNC(=N)N)C(=O)N[C@@H](CCCCN)C(=O)N[C@@H](CCCNC(=N)N)C(=O)N[C@@H](CCC(N)=O)C(=O)N[C@@H](CCC(N)=O)C(N)=O)[C@@H](C)CC)[C@@H](C)CC)[C@@H](C)O)[C@@H](C)O)C(C)C)C(C)C [Mellitin, melittin, reference compound]																					MBC [1, 6]: 32 µM; MIC ([2]; 5 × 10^5 CFU/mL, 24 h, absorbance 550 nm): 32 µM; MBC [2, 6]: 32 µM; MBC (S. aureus (ATCC 6538); [6]): 5.7 µg/mL and 2 µM; MBC (MRSA (NCTC 12493); [6]): 2 µM; MBC (E. coli (ATCC 8739); [6]): 4 µM
CC[C@H](C)[C@H](NC(=O)[C@H](C)NC(=O)[C@@H](CCCCN)NC(=O)[C@@H]1CCCN1C(=O)[C@@H](NC(=O)[C@H](CC(C)C)NC(=O)[C@H](CO)NC(=O)[C@H](CC(C)C)NC(=O)[C@@H](N)Cc1ccccc1)[C@@H](C)CC)C(=O)N[C@H](CCCCN)C(=O)N[C@@H](C)C(=O)N[C@H](C(=O)N[C@@H](CO)C(=O)N[C@@H](C)C(=O)N[C@@H](CC(C)C)C(=O)N[C@@H](C)C(=O)N[C@@H](CCCCN)C(=O)N[C@H](CCCCN)C(=O)N[C@@H](CC(C)C)C(N)=O)C(C)C [Peptide D1] (H-FLSLIP[dK]AI[dK]AVSALAK[dK]L-NH2)	32	32	128 µM	128	>128	>128	>128	>128	Not significant	>128	>128	32 µM	32	32 µM	32						
CC[C@H](C)[C@H](NC(=O)[C@H](C)NC(=O)[C@@H](CCCCN)NC(=O)[C@@H]1CCCN1C(=O)[C@@H](NC(=O)[C@H](CC(C)C)NC(=O)[C@H](CO)NC(=O)[C@H](CC(C)C)NC(=O)[C@@H](N)Cc1ccccc1)[C@@H](C)CC)C(=O)N[C@H](CCCCN)C(=O)N[C@@H](C)C(=O)N[C@H](C(=O)N[C@H](CCCCN)C(=O)N[C@@H](C)C(=O)N[C@@H](CC(C)C)C(=O)N[C@@H](C)C(=O)N[C@H](CCCCN)C(=O)N[C@H](CCCCN)C(=O)N[C@@H](CC(C)C)C(N)=O)C(C)C [Peptide D2] (H-FLSLIP[dK]AI[dK]AV[dK]ALA[dK][dK]L-NH2)	16	16	128 µM	128	>128	>128	>128	>128	Not significant	>128	>128	16 µM	16	32 µM	16						
FLSLIPKAISAVSALAKHL-NH2 [Peptide 7K]	32	32	8/8 μM		4	4	8	4	21.97	64	32	>128 µM	>128	8 µM	8	32	16	64	16	32	MBIC [5]: 4 µM
FLSLIPKAISAVSALAKKL-NH2 [Peptide 18K]	64	32	16/16 μM		4	2	4	4	20.59	128	32	32/32 μM		4/4 μM		32	8	64	32	32	MBIC [5]: 4 µM
